Assay results published in US8258182B2, “Substituted 1,3-diphenylpropane derivatives, preparations and uses thereof” (Genfit, priority 2006, dated 2012).

Tests used:
[1] = system: MCP1 secretion by THP1 monocytes; experiment: Secretion of MCP1 by THP1 monocytes stimulated with PMA (ELISA); format: cell-based, human; conditions: 1 μM, 24 hours, PMA 5 ng/ml, vs DMSO alone (FIG. 4-1)
Experimental: The anti-inflammatory effects of the compounds according to the invention were evaluated by measuring the secretion of MCP1 (Monocyte chemotactic protein-1) by THP1 monocytes treated for 24 hours with the compounds according to the invention and stimulated simultaneously with PMA (Phorbol 12-myristate 13-acetate, which promotes an inflammatory response in cells and their differentiation into macrophages).
The anti-inflammatory effects of the compound according to the invention were evaluated by measuring the secretion of MCP1 (Monocyte chemotactic protein-1) by THP1 monocytes treated for 24 hours with the compounds according to the invention and stimulated simultaneously with PMA (Phorbol 12-myristate 13-acetate, which promotes an inflammatory response in cells and their differentiation into macrophages). […]
The treatment medium is recovered and the MCP1 concentration is measured using the ELISA kit<<Human MCP-1 ELISA Set>>(BD OptEIA; 555179) in accordance with the manufacturer's recommendation.
MCP1 is laid on a plate and is recognized by a anti-MCP1 specific antibody. […] The coloration resulting from the enzymating activity is proportional to the quantity of fixed MCP1 and can be measured by a spectrophotometry method. A range is performed from a point representative of a known concentration and from which the MCP1 concentration of each sample is calculated. […]

[2] = system: PPARs target genes (PDK4, ApoCIII, ACO) in the hepatic tissue; experiment: Hepatic expression of PPAR target genes in E2/E2 mice (quantitative RT-PCR); format: in vivo, mouse; conditions: 3 and 10 mpk
Experimental: The effectiveness of the compounds according to the invention is also evaluated by measuring, in the hepatic tissue, the expression of genes involved in lipid and/or glucids metabolism and in energy dissipation. Each level of genes expression is normalised regarding the expression level of the reference gene 36B4's. The induction factor, i.e. the ratio between the relative signal (induced by the compound according to the invention) and the average of the relative values relating to the control group is then calculated. The higher the induction factor is, the more the compound promotes hepatic gene expression. The final result is expressed as an average of the induction values obtained with each experimental group.
The PPARα agonist properties previously measured in vitro should, in the liver, lead to an overexpression of the target genes directly under the control of the PPARα: the genes we have studied in this experiment are PDK-4 (an enzyme involved in glucid metabolism), Apo CIII (an apolipoprotein involved in lipid metabolism), and Acox1 (in mice, Acox1 corresponds to the ACO gene in humans (Acyl Co-enzymeA Oxydase, an enzyme key to the fatty acid β-oxidation mechanism)). Measuring the transcriptional activity of PPARα target genes after a treatment with compounds according to the invention does therefore allow to evaluate the hypolipidemic properties of the compounds according to the invention.
The ApoE2/E2 transgenic mice were kept on a 12 hour/12 hour light/dark cycle at a constant temperature of 20±3° C. After a one week acclimatization period, the mice were weighed and divided into groups of 6 animals selected so as to render uniform the distribution of their body weights and plasma lipid rates, determined before the experiment. The tested compounds were suspended in carboxymethylcellulose (Sigma C4888) and administered by intra-gastric tube feeding once a day for 8 days (for compound 1) or 14 days (for compound 8) with the chosen doses. The animals had free access to food and water (standard diet). Taking of food and weight gain are recorded throughout the experiment. At the end of the experiment, the animals were anesthetized after a 4 hour fast, and a blood sample was taken using (EDTA) anticoagulant, then the mice were weighed and euthanized. The plasma was separated by centrifugation at 3000 rotations/minute for 20 minutes. The samples were kept at +4° C.
Liver samples were removed, frozen in liquid nitrogen, and kept at −80° C. for later analyses.
Total RNA is extracted from liver fragments by using the NucleoSpin® 96 RNA kit (Macherey Nagel, Hoerdt, France) according to the manufacturer's instructions.
1 μg of total RNA (quantified by using the Ribogreen RNA quantification kit (Molecular Probes)) is then reverse-transcripted into complementary DNA by means of a 1 hour reaction at 37° C. in a total volume of 20 μl containing a 1× buffer (Sigma), 1.5 mM of DTT, 0.18 mM of dNTPs (Promega), 200 ng of pdN6 (Amersham), 30U of RNase inhibitor (Sigma), and 1 μl of MMLV-RT (Sigma).
The PCR quantitative experiments were carried out using the MyiQ Single-Color Real-Time PCR Detection System (Biorad, Marnes-la-Coquette, France) and were performed using the iQ SYBR Green Supermix kit according to the manufacturer's recommendations, in 96-well trays in 5 μl of a diluted reverse transcription solution at a hybridation temperature of 55° C. The specific primer pairs of the genes studied were used: • PDK4: sense primer: 5′-[…]-3′ (SEQ ID NO: 1) and antisense primer 5′-[…]-3′ (SEQ ID NO: 2)) • ApoCIII: sense primer: 5′-[…]-3′ (SEQ ID NO: 3) and antisense primer 5′-[…]-3′ (SEQ ID NO: 4). • ACO: sense primer: 5′-[…]-3′ (SEQ ID NO: 5) and antisense primer: 5′-[…]-3′ (SEQ ID NO: 6)
The quantity of fluorescencet emitted is directly proportional to the quantity of cDNA present at the beginning of the reaction and amplified during the PCR. […]

SMILES: CCCOc1ccc(C(=O)CCc2cc(C)c(OC(C)(C)C(=O)O)c(C)c2)cc1 [Compound 8, 2-[2,6-dimethyl-4-[3-[4-(propyloxy)phenyl]-3-oxo-propyl]phenoxyl]-2-methylpropanoic acid]
- MCP1 secreted by monocytes [1]: significant reduction
- hepatic expression of the genes coding for PDK4 ([2]; 14 days (FIG. 2-7)): significant augmentation
- hepatic expression of the genes coding for ApoCIII ([2]; 14 days (FIG. 2-8)): reduction
- hepatic expression of the genes coding for ACO ([2]; 14 days (FIG. 2-9)): significant augmentation
